Measured values reported in patent publication US20170368089A1, “COMPOSITION FOR PREVENTING OR TREATING COLITIS” (UNIVERSITY-INDUSTRY COOPERATION GROUP OF KYUNG HEE …, priority 2012, published 2017).

Assays:
Assay type in all cases: in vivo, ICR male mice
[1] = tested on: model animal with acute colitis induced by TNBS; test: Acute colitis induced by TNBS in mice: weight change, macroscopic score, colon length, MPO activity, 4th experiment (Timosaponin A-III); conditions: FIGS. 38 to 41; 10 and 20 mg/mouse kg orally
Description: 4-week ICR male mice (24 to 27 g) were purchased from OrientBio. All the mice were bred under the controlled environmental conditions of 50±10% of humidity and 25±2° C. of temperature, and the lighting was repeatedly on for 12 hours and off for 12 hours. A feed for a standard experiment (Samyang, Korea) was used as a feed, and water was freely taken. For all the experiments, one group was 6 mice.
(2) Induction of acute colitis by TNBS and sample administration Among the experimental groups, one group was set as a normal group, and for the experimental animals in other groups, colitis was induced with 2,4,6-trinitrobenzenesulfonic acid (TNBS). […]
The sample administration to the model animals with acute colitis induced by TNBS was stopped, and at the next day, the weights of the experimental animals were measured, and then, the measured weights were compared with the initial weights to calculate the change amounts of weights […]
200 μl of lysis buffer was added to 100 mg of colon tissue, and then, the colon tissue was homogenized. […] In the supernatant, the MPO activity was measured using a mouse MPO assay ELISA kit (Hbt HK210, USA). […]

IL-1 beta = IL-1 beta expression in colon tissue (ELISA), TNBS colitis, first experiment; conditions: Table 5 (group 2), TNBS-treated mice, 3 days
Description: (§1) Among the experimental groups, one group was set as a normal group, and for the experimental animals in other groups, colitis was induced with 2,4,6-trinitrobenzenesulfonic acid (TNBS). In detail, after lightly anesthetizing the experimental animals with ether, 0.1 ml of the solution prepared by mixing […] of 2,4,6-Trinitrobenzene sulfonic acid (NBS) solution with 50% ethanol was injected into the colon through the anus using a syringe having 1 ml volume and oval point, respectively; and then, the syringe was vertically picked up, and then, maintained for 30 seconds to induce the inflammation. Meanwhile, 0.1 ml of normal saline solution was orally administered to the normal group. Since then, from the next day, the sample dissolved in normal saline solution was orally administered in the volume that was decided in advance one time a day for 3 days. At the next day after completing the sample administration, the experimental animals were suffocated to death with carbon dioxide, the colon from appendix to the region just before the anus was removed from the colon region.
(§2) 250 μl of RIPA butter including protease inhibitor cocktail was added to 100 mg of the colon tissue of experimental animal, and then, the colon tissue was homogenized. Since then, the homogenized colon tissue was centrifuged under the conditions of 4° C. and 13000 rpm for 15 minutes to obtain supernatant. While the supernatant was stored at −80° C., the expression amounts of IL-1 beta, IL-6, and TNF-alpha were measured using a 96-well ELISA plate kits (Pierce Biotechology, Inc., Rockford, Ill., USA).

TNF-alpha = TNF-alpha expression in colon tissue (ELISA), TNBS colitis, first experiment; conditions: Table 5 (group 2), TNBS-treated mice, 3 days
Description: as §1, §2

Myeloperoxidase (MPO) = test: MPO activity of colon tissue (mouse MPO ELISA kit), TNBS colitis, first experiment; conditions: Table 3 (group 2), TNBS-treated mice, 3 days
Description: as §1
200 μl of lysis buffer was added to 100 mg of colon tissue, and then, the colon tissue was homogenized. Since then, the homogenized colon tissue was centrifuged under the conditions of 4° C. and 13000 rpm for 15 minutes, and then, the supernatant thereof was obtained. In the supernatant, the MPO activity was measured using a mouse MPO assay ELISA kit (Hbt HK210, USA). 100 μl of the supernatant was added in a 96 well plate, and then, reacted at room temperature for 1 hour. After completing the reaction, the plate was overturned and emptied; was repeatedly washed three times with 200 μl of washing buffer solution; 100 μl of diluted tracer was added thereto; and then the reaction was performed at room temperature for 1 hour. After completing the reaction, the plate was overturned and emptied; and then each well in the plate was washed using 200 μl of washing buffer solution. After repeatedly performing the washing processes three times using 200 μl of washing buffer solution, 100 μl of diluted streptavidin-peroxidase conjugate was added thereto, and then, the reaction was performed at room temperature for 1 hour. After completing the reaction, the plate was overturned and emptied, and then, each well in the plate was washed with 200 μl of washing buffer solution. After the washing processes were repeatedly performed three times using 200 μl of washing buffer solution, 100 μl of TMB substrate solution was added thereto; the plate was wrapped in an aluminum foil to block out the light; and then, the reaction was performed at room temperature for 30 minutes. Since then, 100 μl of a stop solution was added to stop the reaction, and then, the absorbance was measured at 450 nm using an ELISA reader.

IL-6 = IL-6 expression in colon tissue (ELISA), TNBS colitis, first experiment; conditions: Table 5 (group 2), TNBS-treated mice, 3 days
Description: as §1, §2

[2] = tested on: model animal with acute colitis induced by TNBS; test: Acute colitis induced by TNBS in mice, appearance analysis of colon (colon length, macroscopic score), first experiment; conditions: Table 3 (group 2), TNBS-treated mice, 3 days; for Macroscopic score (Mean score): score 0-5
Description: 4-week ICR male mice (24 to 27 g) were purchased from OrientBio. All the mice were bred under the controlled environmental conditions of 50±10% of humidity and 25±2° C. of temperature, and the lighting was repeatedly on for 12 hours and off for 12 hours. A feed for a standard experiment (Samyang, Korea) was used as a feed, and water was freely taken. For all the experiments, one group was 6 mice. […] Meanwhile, 0.1 ml of normal saline solution was orally administered to the normal group. Since then, from the next day, the sample dissolved in normal saline solution was orally administered in the volume that was decided in advance one time a day for 3 days. At the next day after completing the sample administration, the experimental animals were suffocated to death with carbon dioxide, the colon from appendix to the region just before the anus was removed from the colon region. The scores about the removed colons were estimated by observing the appearances and the lengths of the colons according to the following criteria (Hollenbach, and the like, the criteria about the level of colon in 2005) as listed in Table 1. […] In addition, some of the content in the colon was collected in order to analyze the rumen microorganisms, and then, was stored in a freezer of −80° C. From the tissue of colon, the content in the colon was completely removed and then the tissue of colon was washed with normal saline solution. Since then, some of the tissue was fixed with 4% formaldehyde fixing solution in order to be used as a sample for a histopathological examination, and the rest was stored in a freezer of −80° C. for a molecular biological analysis.

SMILES	effect on alleviating or improving acute colitis induced by TNBS (weight change, macroscopic score, colon length, MPO activity; in words) [1]	IL-1 beta conc. (IL-1 beta; 10 mg/kg orally)	IL-1 beta conc. (IL-1 beta; 20 mg/kg orally)	TNF-alpha conc. (TNF-alpha; 10 mg/kg orally)	TNF-alpha conc. (TNF-alpha; 20 mg/kg orally)	MPO activity (Myeloperoxidase (MPO); 10 mg/kg orally)	MPO activity (Myeloperoxidase (MPO); 20 mg/kg orally)	IL-6 conc. (IL-6; 10 mg/kg orally)	IL-6 conc. (IL-6; 20 mg/kg orally)	Colon length ([2]; 10 mg/kg orally)	Macroscopic score (Mean score) ([2]; 10 mg/kg orally)	Colon length ([2]; 20 mg/kg orally)	Macroscopic score (Mean score) ([2]; 20 mg/kg orally)
C[C@H]1CC[C@@]2(OC1)O[C@H]1C[C@H]3[C@@H]4CC[C@@H]5C[C@@H](O[C@@H]6O[C@H](CO)[C@H](O)[C@H](O)[C@H]6O[C@@H]6O[C@H](CO)[C@@H](O)[C@H](O)[C@H]6O)CC[C@]5(C)[C@H]4CC[C@]3(C)[C@H]1[C@@H]2C [Timosaponin A-III]	effect on alleviating or improving acute colitis induced by TNBS according to the concentration dependent	–	–	–	–	–	–	–	–	–	–	–	–
O=c1c2cc(O)c(O)cc2oc2cc(O)c([C@@H]3O[C@H](CO)[C@@H](O)[C@H](O)[C@H]3O)c(O)c12 [mangiferin, Mangiferin]	–	57.4 ± 2.1 pg/mg	28.1 ± 12.1 pg/mg	83.8 ± 10.9 pg/mg	40.8 ± 10.9 pg/mg	0.5 ± 0.2 μUnit/mg	0.2 ± 0.2 μUnit/mg	5.0 ± 0.6 pg/mg	2.2 ± 0.8 pg/mg	5.81 ± 0.09 cm	2.7 ± 0.45	6.98 ± 0.21 cm	1.7 ± 0.27
O=c1c2cc(O[C@@H]3O[C@H](CO)[C@@H](O)[C@H](O)[C@H]3O)c(O)cc2oc2cc(O)c([C@@H]3O[C@H](CO)[C@@H](O)[C@H](O)[C@H]3O)c(O)c12 [neomangiferin, Neomangiferin]	–	62.2 ± 5.1 pg/mg	–	93.6 ± 9.2 pg/mg	–	0.6 ± 0.2 μUnit/mg	–	6.9 ± 1.2 pg/mg	–	5.78 ± 0.10 cm	2.8 ± 0.51	–	–
